Experiments:
[1] = test system: androgen-sensitive human prostate cancer cell line, LNCaP; assay: XTT cell proliferation assay, LNCaP; assay type: cell-based
Protocol: (§1) Cell Proliferation Assays (FIGS. 7, 8, 16, and 17):
(§2) Human androgen-sensitive prostate cancer cell line, LNCaP, and androgen-insensitive prostate cancer cell line, PC-3 were cultured in RPMI-1640 medium supplemented with 2 mM L-glutamine and 10% fetal bovine serum (FBS). For proliferation assays LNCaP and PC-3 cells were seeded at 15,000 cells/well density in 24-well plates with complete medium (with 10% FBS). Cells were let to attach for 20 h and then, the culture medium was exchanged for fresh serum-free medium containing the respective treatments (androgens and test compounds). Viable cells content in each well was determined 72 h afterwards.
(§3) Proliferation was determined by the XTT cell viability assay (Cell Proliferation Kit II (XTT), Sigma-Aldrich, St. Louis, Mo., USA). This is a colorimetric assay that analyzes the number of viable cells by the cleavage of tetrazolium salts added to the culture medium. The cleavage product of tetrazolium salt XTT, in contrast to MTT, is soluble in water. The tetrazolium salt XTT is cleaved to formazan by a complex cellular mechanism. This bioreduction occurs in viable cells only. […] After this incubation period, the amount of formazan dye formed was quantitated using a plate reader. The measured absorbance at 490 nm directly correlates to the number of viable cells.

[2] = test system: human prostate strips from patients with BPH/LUTS; assay: Organ bath, norepinephrine-contracted human prostate strips
Protocol: (§4) Organ Bath Experiments with Human Prostate and Bladder Tissues (FIGS. 10, 12, 19, and 20):
(§5) Specimens of human prostate and bladder neck were obtained from patients undergoing suprapubic adenomectomy (Millin's approach) for benign prostatic hyperplasia (BPH). […]
(§6) Human prostate and bladder neck specimens were cleaned of fat and connective tissue and cut into strips for organ bath assays. […] Tissues were subsequently exposed to 125 mM K^+ (equimolar substitution of […] in KHS) and contractile response was measured to check functionality. The relaxant effect induced by increasing doses of the NtB extract or the vehicle (distilled water) was evaluated in human prostate and bladder neck strips precontracted with 3-10 μM norepinephrine (NE) (80% of K^+-induced contraction, approximately) (FIG. 10). Relaxations of human prostate and bladder neck induced by PDES inhibition were evaluated by adding increasing concentrations of tadalafil (1 nM to 100 μM) on strips precontracted with NE and previously treated with NtB (10 mg/ml) or vehicle (distilled water) (FIG. 12). […] Concentration-response (relaxation) curves to lycopene (0.025 to 0.5 mg/ml) were also determined after NE-induced contraction in human bladder neck (FIG. 20A).

[3] = test system: human bladder neck strips from patients with BPH/LUTS; assay: Organ bath, norepinephrine-contracted human bladder neck strips
Protocol: as §4, §5, §6

[4] = test system: androgen-independent human prostate cancer cell line, PC-3; assay: XTT cell proliferation assay, PC-3; assay type: cell-based; conditions: lycopene 0.1 and 0.25 mg/ml
Protocol: as §1, §2, §3

[5] = test system: prostatic specific antigen (PSA) production by LNCaP; assay: Androgen-stimulated PSA production (ELISA) in LNCaP cells; assay type: cell-based, human; conditions: testosterone or dihydrotestosterone (40 nM), 24 h; lycopene 0.1 and 0.25 mg/ml
Protocol: Prostatic-Specific Antigen (PSA) Determinations (FIGS. 9 and 18):
For this purpose, LNCaP cells were seeded at 25,000 cells/well in 24-well plates and let to grow in complete medium (10% FBS) at 80% confluence, approximately, that is typically achieved after 48 h. The culture medium was then exchanged for fresh serum-free medium containing the respective treatments (androgens and/or NtB and/or lycopene). Conditioned media was collected 24 h afterwards and PSA concentrations were determined by using a colorimetric ELISA kit following manufacturer's instructions (Ray Biotech, Norcross, Ga., USA).

CC(C)=CCC/C(C)=C/C=C/C(C)=C/C=C/C(C)=C/C=C/C=C(C)/C=C/C=C(C)/C=C/C=C(\C)CCC=C(C)C [lycopene]
testosterone- or dihydrotestosterone-induced increase in proliferation of LNCaP cells ([1]; lycopene 0.25 mg/ml, T or DHT 40 nM): effectively reversed | proliferation of LNCaP cells in the absence of androgen stimulation ([1]; lycopene 0.1 and 0.25 mg/ml): did not significantly influence proliferation | relaxation (reversion of NE-induced contraction) of human prostate strips [2]: could have relaxant activity by itself | relaxation (reversion of NE-induced contraction) of human bladder neck strips [3]: could have relaxant activity by itself | proliferation of PC-3 cells in the absence of androgen stimulation [4]: did not significantly influence proliferation | proliferation of PC-3 cells in the presence of T or DHT ([4]; T or DHT 40 nM): failed to significantly reduce proliferation | androgen-stimulated PSA production in LNCaP cells [5]: prevented

From US20190183952A1, “METHODS FOR PREPARING ACTIVE EXTRACT AND APPLICATION THEREOF” (BEIJING BOXIN NATURE BIOTECH LTD., priority 2016, published 2019)
